{"source": "ChEMBL document CHEMBL3352016", "about": "“Natural hydrazine-containing compounds: Biosynthesis, isolation, biological activities and synthesis” (Bioorg Med Chem, 2014)", "key": {"[1]": {"experiment": "Anticancer activity against human MDA231 cells", "format": "functional, cell-based", "details": "MDA-MB-231"}, "[2]": {"experiment": "Inhibition of Escherichia coli DnaG primase"}, "[3]": {"experiment": "Anticancer activity against human HCT116 cells", "format": "functional, cell-based", "details": "HCT-116"}, "[4]": {"experiment": "Anticancer activity against human Caco2 cells", "format": "functional, cell-based", "details": "Caco-2"}, "[5]": {"system": "A-375", "experiment": "Anticancer activity against human A375 cells", "format": "functional, cell-based"}}}
{"compound": "CCCC/C=C\\N(NC(C)=O)C(=O)CCC1=CCOC1=O", "note": "[GERALCIN B]", "values": [{"measurement": "IC50", "setting": "[1]", "value": 5, "unit": "µM"}]}
{"compound": "CCCC/C=C\\N(NC(C)=O)C(=O)C(CO)/N=[N+](\\[O-])CCCCCC", "note": "(stereo not given) [GERALCIN C]", "values": [{"measurement": "IC50", "setting": "[2]", "value": 700, "unit": "µM"}, {"measurement": "IC50", "setting": "[3]", "value": 0.8, "unit": "µM"}]}
{"compound": "COc1cc(/C=C/C(=O)NCCc2c[nH]c3ccc(O)cc23)ccc1O", "note": "[N-FERULOYL SEROTONIN]", "values": [{"measurement": "IC50", "setting": "[4]", "value": 81, "unit": "µM"}]}
{"compound": "N[C@@H](CCC(=O)NNc1ccc(O)cc1)C(=O)O", "note": "[XANTHODERMINE]", "values": [{"measurement": "IC50", "setting": "[5]", "value": 1.6, "unit": "µM"}]}
